# Measured values reported in patent US10759794B2, “2-phenyl-3-(piperazinomethyl)imidazo[1,2-A]pyridine derivatives as blockers of task-1 and task-2 channels, for the treatment of sleep-related breathing disorders” (BAYER PHARMA AKTIENGESELLSCHAFT, priority 2015, dated 2020).
# Assays:
# Type in all cases: cell-based
# human TASK-1 [1] = biological target: T1, human TASK-1 (Homo sapiens (Human), UniProt O14649); assay: Two-electrode voltage clamp analysis of human TASK-1 channels in Xenopus laevis oocytes; details: Xenopus laevis oocytes, two-electrode voltage clamp, room temperature; Table 1A
# T1 sequence (O14649 whole entry): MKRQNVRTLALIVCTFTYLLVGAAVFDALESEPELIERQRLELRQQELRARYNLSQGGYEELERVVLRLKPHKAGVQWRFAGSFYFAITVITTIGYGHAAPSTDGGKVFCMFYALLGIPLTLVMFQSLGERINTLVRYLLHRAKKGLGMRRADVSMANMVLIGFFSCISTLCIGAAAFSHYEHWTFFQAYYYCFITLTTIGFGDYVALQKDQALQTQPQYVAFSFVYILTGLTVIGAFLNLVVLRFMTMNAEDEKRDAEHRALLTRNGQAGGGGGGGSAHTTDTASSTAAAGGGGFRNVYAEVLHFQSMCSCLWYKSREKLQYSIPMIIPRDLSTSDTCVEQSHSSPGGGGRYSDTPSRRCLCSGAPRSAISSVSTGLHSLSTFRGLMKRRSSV
# Protocol: (§1) B-1. In Vitro Electrophysiological Analysis of the Human TASK-1 and TASK-3 Channels Via Two-Electrode Voltage Clamp Technique in Xenopus laevis Oocytes
# (§2) Xenopus laevis oocytes were selected as described elsewhere in an exemplary manner [Decher et al., FEBS Lett. 492, 84-89 (2001)]. Subsequently, the oocytes were injected with 0.5-5 ng of a cRNA solution coding for TASK-1 or TASK-3. For the electrophysiological analysis of the channel proteins expressed in the oocytes, the two-electrode voltage clamp technique [Stühmer, Methods Enzymol. 207, 319-339 (1992)] was used. The measurements were carried out as described [Decher et al., FEBS Lett. 492, 84-89 (2001)] at room temperature (21-22° C.) using a Turbo TEC 10CD amplifier (NPI), recorded at 2 kHz and filtered with 0.4 kHz. Substance administration was performed using a gravitation-driven perfusion system. Here, the oocyte is located in a measuring chamber and exposed to the solvent stream of 10 ml/min. The level in the measuring chamber is monitored and regulated by sucking off the solution using a peristaltic pump.
# human TASK-3 [2] = biological target: T2, human TASK-3 (Homo sapiens (Human), UniProt Q9NPC2); assay: Inhibition of recombinant TASK-3 in stably transfected CHO cells (voltage-sensitive dye, FLIPR); details: depolarization induced by 40 mM potassium chloride, Table 2A
# T2 sequence (Q9NPC2 whole entry): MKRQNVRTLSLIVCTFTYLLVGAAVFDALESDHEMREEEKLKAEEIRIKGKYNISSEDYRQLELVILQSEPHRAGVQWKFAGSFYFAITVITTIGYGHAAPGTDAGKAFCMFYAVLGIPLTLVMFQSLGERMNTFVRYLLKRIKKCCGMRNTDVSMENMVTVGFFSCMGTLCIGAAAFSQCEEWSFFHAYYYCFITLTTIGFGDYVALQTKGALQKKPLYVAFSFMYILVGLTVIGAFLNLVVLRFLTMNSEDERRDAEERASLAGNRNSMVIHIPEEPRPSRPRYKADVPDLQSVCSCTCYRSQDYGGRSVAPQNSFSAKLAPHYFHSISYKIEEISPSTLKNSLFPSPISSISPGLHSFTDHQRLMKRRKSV
# Protocol: (§3) B-2. Inhibition of Recombinant TASK-1 and TASK-3 In Vitro
# (§4) The investigations on the inhibition of the recombinant TASK-1 and TASK-3 channels were carried out using stably transfected CHO cells. Here, the compounds according to the invention were tested with administration of 40 mM of potassium chloride in the presence of a voltage-sensitive dye using the method described in detail in the following references [Whiteaker et al., Validation of FLIPR membrane potential dye for high-throughput screening of potassium channel modulators, J. Biomol. Screen. 6 (5), 305-312 (2001); Molecular Devices FLIPR Application Note: Measuring membrane potential using the FLIPR® membrane potential assay kit on Fluorometric Imaging Plate Reader (FLIPR®) systems, http://www.moleculardevices.com/reagents-supplies/assay-kits/ion-channels/flipr-membrane-potential-assay-kits]. The activity of the test substances was determined as their ability to inhibit a depolarization induced in the recombinant cells by 40 mM potassium chloride. The concentration which can block half of this depolarization is referred to as IC50.
# human TASK-3 [3] = biological target: T2, human TASK-3; assay: Two-electrode voltage clamp analysis of human TASK-3 channels in Xenopus laevis oocytes; details: Xenopus laevis oocytes, two-electrode voltage clamp, room temperature; Table 1A
# Protocol: as §1, §2
# human TASK-1 [4] = biological target: T1, human TASK-1; assay: Inhibition of recombinant TASK-1 in stably transfected CHO cells (voltage-sensitive dye, FLIPR); details: depolarization induced by 40 mM potassium chloride, Table 2A
# Protocol: as §3, §4
SMILES,IC50 (human TASK-1 [1]) [nM],IC50 (human TASK-3 [2]) [nM],IC50 (human TASK-3 [3]) [nM],IC50 (human TASK-1 [4]) [nM]
"O=C(c1ccccc1F)N1CCN(Cc2c(-c3ccc(Br)cc3)nc3ccccn23)CC1 [Example 4, (4-{[2-(4-Bromophenyl)imidazo [1,2-a]pyridin-3-yl]methyl}piperazin-1-yl)(2-fluorophenyl)methanone]",9.7 ± 0.9,46,15 ± 2.1,172
CC(C)Oc1cccc(C(=O)N2CCN(Cc3c(-c4ccc(Cl)cc4)nc4ccccn34)CC2)n1 [Example 39],13.4 ± 0.9,56,6.2 ± 1.1,440
COc1cccc(C(=O)N2CCN(Cc3c(-c4ccc(Br)cc4)nc4ccccn34)CC2)n1 [Example 47],4.9 ± 0.4,18,2.3 ± 0.3,140

# Results, then the compound that gave them:
IC50 (human TASK-1 [1]) [nM],IC50 (human TASK-3 [2]) [nM],IC50 (human TASK-3 [3]) [nM],IC50 (human TASK-1 [4]) [nM],SMILES
4.3 ± 1.3,225,38.2 ± 1.4,479,CC(C)c1ccc(-c2nc3ccccn3c2CN2CCN(C(=O)C3CCCC3)CC2)cc1 [Example 54]
45 ± 6.7,141,79.6 ± 10.8,490,COc1cccc(C(=O)N2CCN(Cc3c(-c4ccc(C(C)C)cc4)nc4ccccn34)CC2)n1 [Example 55]
